Source: publication PMC11173897, “Computational Docking as a Tool in Guiding the Drug Design of Rutaecarpine Derivatives as Potential SARS-CoV-2 Inhibitors” (Molecules, 2024)

Tests used:
[1] = target: T1, SARS-CoV-2 3CL protease (Severe acute respiratory syndrome coronavirus 2, UniProt P0DTD1); conditions: cited from earlier work
[2] = tested on: cells; conditions: MTT assay, Figure S1
[3] = target: T1, SARS-CoV-2 3CL protease; assay: 3CL protease assay (SensoLyte fluorogenic kit); format: biochemical; conditions: n = 4
[4] = target: T2, S-protein–ACE2 complex (Severe acute respiratory syndrome coronavirus 2, UniProt P0DTC2); conditions: cited from earlier work
T2 construct: purchased ImmunoDiagnostics Ltd., Hong Kong, China

[5] = tested on: TNF-α, IL-6 and IL-1β mRNA in RAW264.7 cells; conditions: previous investigation; cited from earlier work
[6] = target: T2, S-protein–ACE2 complex; assay: S-protein-based ELISA (spike–ACE2 binding assay kit); parameters: species or system SARS-CoV-2; conditions: for IC50: tested at 0.1, 1, 5, 10, 20 µM, n = 4, read-out: IC50, disrupting the S-protein–ACE2 complex; for maximal inhibition, higher than that of RU: S-protein-based ELISA, compared with RU
Source text: An S-protein-based ELISA was utilized to determine the binding activities of RU-75 and RU-184 to the S-protein–ACE2 complex. A standard inhibitor, provided by the supplier (calibrated to NIBSC code 20/136), was employed as a positive control (Figure 6A). […] The maximal inhibition, triggered by RU-75 and RU-184, was at least 20% higher than that of RU.
(A) A standard inhibitor, provided by supplier (calibrated to NIBSC code 20/136), was used as a positive control. (B) Rutaecarpine, RU-75 and RU-184 were detected at concentrations of 0.1, 1, 5, 10, 20 µM. The IC50 values are shown.
Spike (S)-protein inhibition was analyzed with the SARS-CoV-2 spike–ACE2 binding assay kit (ImmunoDiagnostics Ltd., Hong Kong, China), according to the manufacturer’s instructions. The reaction was terminated by the addition of 2 M H2SO4, and the data were quantified using a microplate reader (FlexStation; Molecular Devices, San Jose, CA). The percentage of inhibition was calculated as follows:
Percentage of inhibition = (PAvg − SAvg)/PAvg × 100%, where PAvg and SAvg are the mean OD values of the positive control and test sample, respectively.

[7] = tested on: wild-type SARS-CoV-2 pseudovirus; conditions: cited from earlier work
[8] = tested on: TNF-α, IL-6 and IL-1β mRNA in RAW264.7 cells; format: cell-based; conditions: co-treated with LPS 0.1 µg/mL, 24 h, Figure S2
[9] = tested on: TNF-α, IL-6 and IL-1β mRNA in RAW264.7 cells; format: cell-based

Structure (SMILES) | 3CL protease inhibition [1] | cell toxicity (cell viability) [2] | IC50 [3] [nM] | formation of the S-protein–ACE2 complex [4] | inflammatory response induced by SARS-CoV-2 [5] | IC50 [6] [nM] | entry of SARS-CoV-2 into host cells [7] | inflammatory suppression [8] | production of inflammatory cytokines (TNF-α, IL-6 and IL-1β) [9] | maximal inhibition, higher than that of RU [6]
O=c1c2ccccc2nc2n1CCc1c-2[nH]c2ccccc12 [RU, rutaecarpine] | inhibit the 3CL protease | little impact on the cell viability | 1600 | inhibited the formation of the S-protein–ACE2 complex | attenuated the inflammatory response | 1260 | prevented the entry of SARS-CoV-2 into host cells | – | – | –
O=c1c2ccc(Nc3ccccc3)cc2nc2n1CCc1c-2[nH]c2ccccc12 [RU-75] | – | little impact on the cell viability | 1310 | – | – | 1030 | – | no significant inflammatory suppression | significantly reduced | at least 20%
O=C1c2ccc(Nc3ccccc3)cc2NC2=NCCc3c2n1c1ccccc31 [RU-184] | – | little impact on the cell viability | 1030 | – | – | 780 | – | no significant inflammatory suppression | significantly reduced | at least 20%
